# Read-outs that look alike come from different tables or passages of the source.
# Tests used:
# Experiment in all cases: Antibiogram of clinical isolate
# Assay type in all cases: cell-based
# Parameters in all cases: key to Interpretation: R represents “resistant”; I represents “intermediate”; S represents “sensitive”
# [1] = system: Methicillin Resistant Staphylococcus aureus; conditions: veterinary clinical isolate
# Method: (§1) Veterinary clinical isolates, including Salmonella typhimurium, multi-drug resistant Escherichia coli, methicillin-resistant Staphylococcus aureus (MRSA), and methicillin-resistant Staphylococcus pseudointermedius (MRSP), were kindly provided by Dr. H. Cai (Department of Pathobiology, University of Guelph, ON, Canada). An antibiogram for these strains is available in the supplementary text (Table S1). Gram-negative strains were cultured in Luria−Bertani (LB) broth. Gram-positive strains were cultured in Tryptic soy broth (TSB). Both cultures were grown under aerobic conditions at 37 °C.
# (§2) 1 Where R represents “resistant”, I represents “intermediate” and S represents “sensitive”.
# (§3) 2 MIC represents the minimal inhibitory concentration of the antibiotic in mcg/mL.
# (§4) 3 mm represents the diameter zone of inhibition against antibiotic disc.
# Escherichia coli = conditions: multi-drug resistant veterinary clinical isolate
# Method: as §1, §2, §3, §4
# [2] = system: Methicillin Resistant Staphylococcus pseudointermedius; conditions: veterinary clinical isolate
# Method: as §1, §2, §3, §4
# [3] = Staphylococcus aureus, read-out: MIC
# [4] = Escherichia coli, read-out: MIC
Molecule,"MIC [1, 3] [µg/mL]",Interpretation [1],diameter zone of inhibition against antibiotic disc [1] [mm],MIC (Escherichia coli; [4]) [µg/mL],Interpretation (Escherichia coli),diameter zone of inhibition against antibiotic disc (Escherichia coli) [mm],"MIC ([2]; Staphylococcus, read-out: MIC) [µg/mL]",Interpretation [2],diameter zone of inhibition against antibiotic disc [2] [mm],MIC (Escherichia coli) [µg/mL],MIC [1],MIC [2] [µg/mL]
NCC[C@H](O)C(=O)N[C@@H]1C[C@H](N)[C@@H](O[C@H]2O[C@H](CN)[C@@H](O)[C@H](O)[C@H]2O)[C@H](O)[C@H]1O[C@H]1O[C@H](CO)[C@@H](O)[C@H](N)[C@H]1O [Amikacin],9.5,S,18,–,–,–,–,–,–,–,–,–
CC1(C)S[C@@H]2[C@H](NC(=O)[C@H](N)c3ccccc3)C(=O)N2[C@H]1C(=O)O [Ampicillin],19,R,11,> 46,R,6,12,R,13,–,–,–
CC1(C)S[C@@H]2[C@H](NC(=O)C(C(=O)O)c3ccccc3)C(=O)N2[C@H]1C(=O)O (stereo partly drawn) [Carbenicillin],–,R,15,–,–,–,–,–,–,–,–,–
C=CC1=C(C(=O)O)N2C(=O)[C@@H](NC(=O)/C(=N\OCC(=O)O)c3csc(N)n3)[C@H]2SC1 [Cefixime],> 26,R,6,–,–,–,–,–,–,–,–,–
CO/N=C(/C(=O)N[C@@H]1C(=O)N2C(C(=O)O)=C([C@@H]3CCCO3)CS[C@H]12)c1csc(N)n1 [Cefovecin],–,–,–,–,R,6,–,R,21,–,–,–
CO[C@@]1(NC(=O)Cc2cccs2)C(=O)N2C(C(=O)O)=C(COC(N)=O)CS[C@@H]21 [Cefoxitin],–,–,–,> 69,R,6,–,R,24,–,–,–
CC(C)(O/N=C(\C(=O)N[C@@H]1C(=O)N2C(C(=O)[O-])=C(C[n+]3ccccc3)CS[C@H]12)c1csc(N)n1)C(=O)O [Ceftazidime],41,R,13,–,–,–,–,–,–,–,–,–
CO/N=C(\C(=O)N[C@@H]1C(=O)N2C(C(=O)O)=C(CSC(=O)c3ccco3)CS[C@H]12)c1csc(N)n1 [Ceftiofur],3.9,R,19,–,–,–,–,–,–,–,–,–
CC(=O)OCC1=C(C(=O)O)N2C(=O)[C@@H](NC(=O)Cc3cccs3)[C@H]2SC1 [Cephalothin],2.2,R,25,> 101,R,6,1.4,R,27,–,–,–
O=C(N[C@H](CO)[C@H](O)c1ccc([N+](=O)[O-])cc1)C(Cl)Cl [Chloramphenicol],4.5,S,26,–,–,–,–,–,–,–,–,–
CCC[C@@H]1C[C@@H](C(=O)N[C@@H]([C@H]2O[C@H](SC)[C@H](O)[C@@H](O)[C@H]2O)[C@H](C)Cl)N(C)C1 [Clindamycin],> 10,R,6,–,–,–,> 10,R,7,–,–,–
CN1CCN(c2cc3c(cc2F)c(=O)c(C(=O)O)cn3-c2ccc(F)cc2)CC1 [Difloxacin],≤ 0.07,S,30,–,–,–,–,–,–,–,–,–
CCN1CCN(c2cc3c(cc2F)c(=O)c(C(=O)O)cn3C2CC2)CC1 [Enrofloxacin],≤ 0.099,S,29,> 18,R,7,> 19,R,6,–,–,–
CNC(C)C1CCC(N)C(OC2C(N)CC(N)C(OC3OCC(C)(O)C(NC)C3O)C2O)O1 (stereo not drawn) [Gentamicin],31,R,9,2.6,S,18,7.9,I,14,–,–,–
C[C@@H](O)[C@H]1C(=O)N2C(C(=O)O)=C(SCCN=CN)C[C@H]12 [Imipenem],≤ 0.56,R,39,–,–,–,–,–,–,–,–,–
CN1CCN(c2c(F)cc3c(=O)c(C(=O)O)cn4c3c2OCN4C)CC1 [Marbofloxacin],–,S,27,–,R,6,–,R,6,–,–,–
C[C@@H]1CN(c2c(F)c(F)c3c(=O)c(C(=O)O)cn(C4CC4)c3c2F)C[C@H](C)N1 [Orbifloxacin],0.25,S,27,> 40,R,6,> 40,R,6,–,–,–
Cc1onc(-c2ccccc2)c1C(=O)N[C@@H]1C(=O)N2[C@@H]1SC(C)(C)[C@@H]2C(=O)O [Oxacillin],–,R,6,–,–,–,1.8,R,14,–,–,–
CCN1CCN(C(=O)N[C@@H](C(=O)N[C@@H]2C(=O)N3[C@@H]2SC(C)(C)[C@@H]3C(=O)O)c2ccccc2)C(=O)C1=O [Piperacillin],–,R,12,–,–,–,–,–,–,–,–,–
CN(C)[C@@H]1C(O)=C(C(N)=O)C(=O)[C@@]2(O)C(O)=C3C(=O)c4c(O)cccc4[C@@](C)(O)[C@H]3C[C@@H]12 [Tetracycline],0.42,S,31,16,R,13,> 33,R,8,–,–,–
CC1(C)S[C@@H]2[C@H](NC(=O)[C@H](C(=O)O)c3ccsc3)C(=O)N2[C@H]1C(=O)O [Ticarcillin],–,R,14,–,–,–,–,–,–,–,–,–
Amoxicillin-clavulanate,–,R,16,–,R,8,–,R,24,> 64,14 µg/mL,2.9
Polymixin-B,–,R,9,–,–,–,–,–,–,–,–,–
Titracillin-clavulanate,–,R,15,–,–,–,–,–,–,–,–,–
Trimethoprim-sulfamethoxazole,–,S,31,–,R,6,–,R,6,> 10,<= 4.1 mcg/mL,> 10

# — PMC7407491, “The Addition of a Synthetic LPS-Targeting Domain Improves Serum Stability While Maintaining Antimicrobial, Antibiofilm, and Cell Stimulating Properties of an Antimicrobial Peptide” (Biomolecules, 2020)
